Patent US20020165233A1, “Quinoxaline containing medicaments for post exposure prophylaxis of an HIV infection” (priority 1999, published 2002)

Tests used:
RT-SHIV [1] = assay: Quantitative virus isolation (QVI) from PBMC co-cultured with C8166 and viral RNA PCR of culture supernatant; assay type: in vivo, rhesus monkeys; set-up: key to viral RNA PCR of QVI culture supernatant: +=positive; −=negative
Protocol: (§1) Nine rhesus monkeys (male, 2 years old, 2-3 kg) were seronegative for SIV, Simian T cell Leukemia Virus (STLV), B virus and Type D retroviruses. 15 mg/kg body weight of COMPOUND A was subcutaneously administered into animals twice a day (12 h interval) for 28 d. Animals were divided into three groups. All animals were intravenously administered with 100 TCID50 of RT-SHIV The first group consisted of three animals treated with COMPOUND A from 8 h post exposure for 28 d. The second group of animals was treated with COMPOUND A from 24 h post exposure for 28 d. The third group (control) received the solvent that was used to dissolve COMPOUND A (PEG400:glycerol:water=[…]) from 8 h post exposure for 28 d.
(§2) Blood was collected from all the animals either just before or 2 h after the drug administration on 0, 3, 7, 10, 14, 21, 29 d post exposure in order to check the drug concentration, otherwise in intervals of 2 to 8 weeks. Biopsy of inguinal lymph nodes was conducted on 17 d or 18 d and 8 weeks post exposure in two animals per group. Cerebrospinal fluid (CSF) was collected from the animals just before biopsy.
Viral RNA was detected from 7 or 10 d post exposure up to 40 weeks post exposure in all plasma specimen from two animals (FIG. 2). […] While in two animals plasma viral RNA levels persisted around 10^5 copy/ml after a moderate reduction occurred at 4 weeks post exposure, viral RNA levels in one animal declined to about 10^3 copy/ml after 15 weeks post exposure (FIG. 2). The RT-SHIV infection in PIBMC was monitored by quantitative virus isolation (QVI) and quantitative PCR assay of proviral DNA. Serially diluted PBMC were co-cultured with C8166 to determine the minimal PBMC cell number to provoke a productive infection of C8166 cells. The number from the QVI test indicates infectious cells per one million PBMC. QVI results were consistent with plasma viral RNA levels. The numbers indicates the results of QVI. A + or − on the right indicates results of viral RNA PCR assay for the detection of virus in culture supernatant. +=positive, −=negative.

[2] = set-up: species or system rhesus monkeys; conditions: rhesus monkey, in vivo, sc, 15 mg/kg
Protocol: as §1

RT-SHIV [3] = assay: Plasma viral load (quantitative RNA PCR) after post-exposure prophylaxis; assay type: in vivo, rhesus monkeys
Protocol: as §1, §2
Determination of Plasma Viral Load:
Viral RNA was purified from plasma with a commercial viral RNA isolation kit (Boehringer Mannheim). Gag cDNA was PCR amplified with a commercial RNA PCR kit (Boehringer Mannheim) with the gag primers SG05i (5′-ACTGCTGATTCAAAATGCiMCC-3′), SG06i (5′-CTACTGGTCTiCTCCAAAGAGAGAATTG-3′) according to the protocol by Piatak et al. (Biotechniques 14, 70-81-1993) with modifications. Amplified gag DNA was separated by 2% agarose electrophoresis and cyber green stained DNA was analyzed with a fluorescence image analyzer (FLA2000, Fuji Photo Film). Quantitative determination of the viral RNA copy number was calculated using external standards.

RT-SHIV [4] = assay: Cytotoxic lymphocytes (CTL) assay against env and gag-pol; assay type: in vivo, rhesus monkeys; conditions: treated animals; all time points tested (3 w to 40 w post exposure)
[5] = animal #1, 15 mg/kg s.c. b.i.d. 8h thru 28 d post exp, week 6 post exp.
[6] = animal #1, 15 mg/kg s.c. b.i.d. 8h thru 28 d post exp, week 8 post exp.
[7] = animal #1, 15 mg/kg s.c. b.i.d. 8h thru 28 d post exp, week 11 post exp.
[8] = animal #3, 15 mg/kg s.c. b.i.d. 24h thru 28 d post exp., week 6 post exp.
[9] = animal #3, 15 mg/kg s.c. b.i.d. 24h thru 28 d post exp., week 8 post exp.
[10] = animal #3, 15 mg/kg s.c. b.i.d. 24h thru 28 d post exp., week 11 post exp.
[11] = animal #4, 15 mg/kg s.c. b.i.d. 24h thru 28 d post exp., week 8 post exp.
[12] = animal #10, 15 mg/kg s.c. b.i.d. 8h thru 28 d post exp, week 6 post exp.
[13] = animal #10, 15 mg/kg s.c. b.i.d. 8h thru 28 d post exp, week 8 post exp.
[14] = animal #10, 15 mg/kg s.c. b.i.d. 8h thru 28 d post exp, week 11 post exp.
[15] = animal #11, 15 mg/kg s.c. b.i.d. 24h thru 28 d post exp., week 8 post exp.
[16] = animal #11, 15 mg/kg s.c. b.i.d. 24h thru 28 d post exp., week 11 post exp.

CC[C@H]1C(=O)Nc2ccc(F)cc2N1C(=O)OC(C)C [Compound A, (3S)-ethyl-6-fluoro-4-isopropyloxycarbonyl-3,4-dihydroquinoxalin-2(1H)-one]
viral RNA PCR of QVI culture supernatant (RT-SHIV [1]; animal #1, 15 mg/kg s.c. b.i.d. 8h thru 28 d post exp, week 2 post exp.): −/− | Quantitative virus isolation (QVI) (RT-SHIV [1]; [5]): 4 infectious cells per one million PBMC | viral RNA PCR of QVI culture supernatant (RT-SHIV [1]; [5]): + | Quantitative virus isolation (QVI) (RT-SHIV [1]; [6]): 16 infectious cells per one million PBMC | viral RNA PCR of QVI culture supernatant (RT-SHIV [1]; [6]): + | Quantitative virus isolation (QVI) (RT-SHIV [1]; [7]): 4 infectious cells per one million PBMC | viral RNA PCR of QVI culture supernatant (RT-SHIV [1]; [7]): + | viral RNA PCR of QVI culture supernatant (RT-SHIV [1]; animal #1, 15 mg/kg s.c. b.i.d. 8h thru 28 d post exp, week 15 post exp.): −/− | viral RNA PCR of QVI culture supernatant (RT-SHIV [1]; animal #3, 15 mg/kg s.c. b.i.d. 24h thru 28 d post exp., week 2 post exp.): −/− | Quantitative virus isolation (QVI) (RT-SHIV [1]; [8]): 16 infectious cells per one million PBMC | viral RNA PCR of QVI culture supernatant (RT-SHIV [1]; [8]): + | Quantitative virus isolation (QVI) (RT-SHIV [1]; [9]): 16 infectious cells per one million PBMC | viral RNA PCR of QVI culture supernatant (RT-SHIV [1]; [9]): + | Quantitative virus isolation (QVI) (RT-SHIV [1]; [10]): 16 infectious cells per one million PBMC | viral RNA PCR of QVI culture supernatant (RT-SHIV [1]; [10]): + | viral RNA PCR of QVI culture supernatant (RT-SHIV [1]; animal #3, 15 mg/kg s.c. b.i.d. 24h thru 28 d post exp., week 15 post exp.): −/− | viral RNA PCR of QVI culture supernatant (RT-SHIV [1]; animal #4, 15 mg/kg s.c. b.i.d. 24h thru 28 d post exp., week 2 post exp.): −/− | viral RNA PCR of QVI culture supernatant (RT-SHIV [1]; animal #4, 15 mg/kg s.c. b.i.d. 24h thru 28 d post exp., week 6 post exp.): −/− | Quantitative virus isolation (QVI) (RT-SHIV [1]; [11]): 1 infectious cells per one million PBMC | viral RNA PCR of QVI culture supernatant (RT-SHIV [1]; [11]): + | viral RNA PCR of QVI culture supernatant (RT-SHIV [1]; animal #4, 15 mg/kg s.c. b.i.d. 24h thru 28 d post exp., week 11 post exp.): −/− | viral RNA PCR of QVI culture supernatant (RT-SHIV [1]; animal #4, 15 mg/kg s.c. b.i.d. 24h thru 28 d post exp., week 15 post exp.): −/− | viral RNA PCR of QVI culture supernatant (RT-SHIV [1]; animal #5, 15 mg/kg s.c. b.i.d. 8h thru 28 d post exp, week 2 post exp.): −/− | viral RNA PCR of QVI culture supernatant (RT-SHIV [1]; animal #5, 15 mg/kg s.c. b.i.d. 8h thru 28 d post exp, week 6 post exp.): −/− | viral RNA PCR of QVI culture supernatant (RT-SHIV [1]; animal #5, 15 mg/kg s.c. b.i.d. 8h thru 28 d post exp, week 8 post exp.): −/− | viral RNA PCR of QVI culture supernatant (RT-SHIV [1]; animal #5, 15 mg/kg s.c. b.i.d. 8h thru 28 d post exp, week 11 post exp.): −/− | viral RNA PCR of QVI culture supernatant (RT-SHIV [1]; animal #5, 15 mg/kg s.c. b.i.d. 8h thru 28 d post exp, week 15 post exp.): −/− | viral RNA PCR of QVI culture supernatant (RT-SHIV [1]; animal #10, 15 mg/kg s.c. b.i.d. 8h thru 28 d post exp, week 2 post exp.): −/− | Quantitative virus isolation (QVI) (RT-SHIV [1]; [12]): 1 infectious cells per one million PBMC | viral RNA PCR of QVI culture supernatant (RT-SHIV [1]; [12]): + | Quantitative virus isolation (QVI) (RT-SHIV [1]; [13]): 16 infectious cells per one million PBMC | viral RNA PCR of QVI culture supernatant (RT-SHIV [1]; [13]): + | Quantitative virus isolation (QVI) (RT-SHIV [1]; [14]): 4 infectious cells per one million PBMC | viral RNA PCR of QVI culture supernatant (RT-SHIV [1]; [14]): + | viral RNA PCR of QVI culture supernatant (RT-SHIV [1]; animal #10, 15 mg/kg s.c. b.i.d. 8h thru 28 d post exp, week 15 post exp.): −/− | viral RNA PCR of QVI culture supernatant (RT-SHIV [1]; animal #11, 15 mg/kg s.c. b.i.d. 24h thru 28 d post exp., week 2 post exp.): −/− | viral RNA PCR of QVI culture supernatant (RT-SHIV [1]; animal #11, 15 mg/kg s.c. b.i.d. 24h thru 28 d post exp., week 6 post exp.): −/− | Quantitative virus isolation (QVI) (RT-SHIV [1]; [15]): 4 infectious cells per one million PBMC | viral RNA PCR of QVI culture supernatant (RT-SHIV [1]; [15]): + | Quantitative virus isolation (QVI) (RT-SHIV [1]; [16]): 4 infectious cells per one million PBMC | viral RNA PCR of QVI culture supernatant (RT-SHIV [1]; [16]): + | viral RNA PCR of QVI culture supernatant (RT-SHIV [1]; animal #11, 15 mg/kg s.c. b.i.d. 24h thru 28 d post exp., week 15 post exp.): −/− | adverse effect [2]: without any adverse effect | animals with a short active viral replication (RT-SHIV [3]; 4 weeks after cessation of treatment): 50 % of the animals | viral replication (plasma viral RNA, proviral DNA, infectious cells in PBMC) (RT-SHIV [3]; during the treatment and the following 3 weeks, all treated animals): inhibited at a level below the sensitivity of the assays | viral infection in animal #5 (RT-SHIV [3]; plasma viral RNA, proviral DNA and QVI methods): no viral infection was observed | duration of immune-system assisted control following exposure (RT-SHIV [3]; rhesus macaques): at least 40 weeks | viral replication (plasma viral RNA level) (RT-SHIV [3]; subsequent to active replication around 10 weeks, up to 40 weeks post exposure, RNA PCR detection level): ≤ 1000 copy/ml | CTL activity against env and gag-pol (RT-SHIV [4]): constant high CTL activity
